According to patent EP1073651B1, “INDOLYL DERIVATIVES AS SEROTONERGIC AGENTS” (Wyeth, priority 1998, dated 1999):
pKi: −log10 of the molar value. Read-outs that look alike come from different tables or passages of the source.

Target: T1, serotonin transporter (Rattus norvegicus, UniProt P31652)
T1 construct: from tissue; host or cells: frontal cortex membranes of male Sprague-Dawley rats
Experiment: Displacement of specifically bound 3H-paroxetine from rat cortical membranes (affinity for the serotonin transporter)
Type: binding
Protocol: The affinity of drugs for the serotonin transporter was determined by assessing the ability of agents to displace specifically bound 3H-paroxetine binding from rat cortical membranes. […] Briefly, frontal cortical membranes prepared from male S.D. rats were incubated with ^3H-paroxetine (0.1 nM) for 60 min at 25°C. All tubes also contained either vehicle, test compound (one to eight concentrations), or a saturating concentration of fluoxetine (10 µM) to define […]. All reactions are terminated by the addition of ice cold Tris buffer followed by rapid filtration using a Tom Tech filtration device to separate bound from free ^3H-paroxetine. […] Nonspecific binding was determined using fluoxetine.

[1] = compounds of formula 1, frontal cortical membranes from male S.D. rats, 3H-paroxetine 0.1 nM, 60 min at 25°C, Ki from IC50 by Cheng and Prusoff, read-out: Inhibition of [3H]-Paroxetine binding Ki

T1 sequence (P31652 whole entry): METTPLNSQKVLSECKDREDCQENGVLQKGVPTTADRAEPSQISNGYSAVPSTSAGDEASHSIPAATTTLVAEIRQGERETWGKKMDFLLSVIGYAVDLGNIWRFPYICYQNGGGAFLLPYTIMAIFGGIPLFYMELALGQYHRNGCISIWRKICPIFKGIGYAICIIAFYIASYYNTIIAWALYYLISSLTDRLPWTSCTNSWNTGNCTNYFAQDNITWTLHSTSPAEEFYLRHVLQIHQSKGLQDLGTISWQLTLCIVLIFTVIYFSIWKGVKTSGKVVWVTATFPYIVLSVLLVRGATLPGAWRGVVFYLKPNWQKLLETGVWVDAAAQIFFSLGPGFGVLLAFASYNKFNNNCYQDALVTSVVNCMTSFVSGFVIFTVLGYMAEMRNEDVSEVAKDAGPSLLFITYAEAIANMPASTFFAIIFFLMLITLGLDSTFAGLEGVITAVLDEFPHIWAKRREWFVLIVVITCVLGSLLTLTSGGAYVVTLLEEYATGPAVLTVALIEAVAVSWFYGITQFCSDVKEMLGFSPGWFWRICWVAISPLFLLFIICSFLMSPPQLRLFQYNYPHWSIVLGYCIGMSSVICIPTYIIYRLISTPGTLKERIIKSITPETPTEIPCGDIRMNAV

Compound	pKi [1]	pKi
COc1ccccc1N1CCN(CCN2CCC(Cc3c[nH]c4ccc(F)cc34)CC2)CC1 [Example 1, 5-Fluoro-3-(1-{2-[4-(2-methoxyphenyl)piperazin-1-yl]ethyl}piperidin-4-ylmethyl)-1H-indole]	8.32	
COc1ccccc1N1CCN(CCN2CC=C(c3c[nH]c4ccc(F)cc34)CC2)CC1 [Example 7, 5-Fluoro-3-(1-{2-[4-(2-methoxyphenyl)piperazin-1-yl]ethyl} 1,2,3,6-tetrahydropyridin-4-yl)-1H-indole]		7.72
COc1ccccc1N1CCN(CCCN2CCC(Cc3c[nH]c4ccc(F)cc34)CC2)CC1 [Example 3, 5-Fluoro-3-(1-{3-[4-(2-methoxyphenyl)piperazin-1-yl]propyl}piperidin-4-ylmethyl)-1H-indole]	8.92	
COc1ccccc1N1CCN(CCN2CC=C(c3c[nH]c4ccccc34)CC2)CC1 [Example 6, 3-(1-{2-[4-(2-methoxyphenyl)piperazin-1-yl]ethyl} 1,2,3,6-tetrahydropyridin-4-yl)-1H-indole]		8.00
